Like-named read-outs stand apart in the source and are kept apart here. Marks after values point to notes of the source that are not given here.
What was measured:
[1] = for O—H BDE, absolute measured value (±2 SD): EPR equilibration; for O—H BDE, absolute measured value (±2 SD) / Experimental substituent effect on O—H BDE, 5-pyrimidinols (vi): solution phase; for O—H BDE: O—H bond dissociation enthalpy: Table A; for Experimental substituent effect on O—H BDE, 5-pyrimidinols (vi): 298 K, relative to unsubstituted (vi)
[2] = for k/alkyl: second order rate constant for reaction with alkyl radicals: Table A
[3] = Reaction with peroxyl radicals, oxygen consumption in inhibited autoxidation of styrene; format: physicochemical; conditions: for Rate constants with peroxyl radicals, pyrimidinol versus phenolic counterpart: (vi)/(iv) pair; for k/peroxyl: second order rate constant for reaction with peroxyl radicals: Table A; for Rate constant for reaction with peroxyl radicals: benzene, 323 K
[4] = open atmosphere
[5] = Burton et al. 1985; cited from earlier work
[6] = solution phase, 298 K, from ref 2C, cited from earlier work; for Experimental substituent effect on O—H BDE, phenols (iv): relative to unsubstituted (iv)
[7] = benzene, 298 K, reported in ref 12, cited from earlier work
[8] = set-up: key: Not an air-stable compound; conditions: Table 2, column (iv); cited from earlier work

For `Oc1cncnc1` [Example 1, 5-Pyrimidinol], which “O—H BDE: O—H bond dissociation enthalpy (estimate)” value ([1]; Estimate based upon other results to date for other 5-pyrimidinols) is on record?
Its value is 91.3^a.

And the “k/alkyl: second order rate constant for reaction with alkyl radicals” value [2]?
Its value is 3.6 × 10^6.

With `Cc1nc(C)c(O)c(C)n1` [Example 2, 2,4,6-Trimethyl-5-pyrimidinol] as the molecule, how does the “O—H BDE, absolute measured value (±2 SD)” value [1] read?
The value was 85.2 ± 0.5 kcal/mol.

And the “O—H BDE: O—H bond dissociation enthalpy” value [1]?
Its value is 85.2.

And the “Experimental substituent effect on O—H BDE, 5-pyrimidinols (vi)” value [1]?
Its value is -5.9 kcal/mol.

And the “Rate constants with peroxyl radicals, pyrimidinol versus phenolic counterpart” value [3]?
The value was no more than 3.

And the “k/peroxyl: second order rate constant for reaction with peroxyl radicals” value [3]?
The value was 3.3 ± 0.4 × 10^4.

What about the “Rate constant for reaction with peroxyl radicals” value [3] of the same molecule?
Its value is 3.3 ± 0.4 × 10^4 M^−1 s^−1.

What about the “k/alkyl: second order rate constant for reaction with alkyl radicals” value [2] of the same molecule?
Its value is 4.6 × 10^5.

And the “Rate constant for reaction with alkyl radicals (estimate)” value ([2]; benzene, 298 K, neophyl clock (N), estimate from correlations of k and β for CH3CN, EtOAc, t-BuOH)?
Its value is 4.6 × 10^5 (N)^c,d M^−1 s^−1.

What about the “Deuterium kinetic isotope effect (kH/kD), alkyl radicals” value ([2]; dry solvents containing D2O) of the same molecule?
Its value is 3.1.

Which results are given for `Cc1nc(C(C)(C)C)c(O)c(C(C)(C)C)n1` [Example 3, 2-Methyl-4,6-di-tert-butyl-5-pyrimidinol]?
O—H BDE, absolute measured value (±2 SD) [1]: 84.10 ± 0.25 kcal/mol; O—H BDE: O—H bond dissociation enthalpy [1]: 84.1; Experimental substituent effect on O—H BDE, 5-pyrimidinols (vi) [1]: -7.0 kcal/mol; Rate constants with peroxyl radicals, pyrimidinol versus phenolic counterpart [3]: roughly the same; k/peroxyl: second order rate constant for reaction with peroxyl radicals [3]: 2.2 ± 0.3 × 10^4; Rate constant for reaction with peroxyl radicals [3]: 2.2 ± 0.3 × 10^4 M^−1 s^−1; k/alkyl: second order rate constant for reaction with alkyl radicals [2]: 3.2 ± 0.5 × 10^4; Rate constant for reaction with alkyl radicals ([2]; benzene, 298 K, neophyl radical clock (N)): 3.2 ± 0.5 × 10^4 (N) M^−1 s^−1

Which “O—H BDE: O—H bond dissociation enthalpy” value [1] does the source give for `COc1nc(C)c(O)c(C)n1` [Example 4, 2-Methoxy-4,6-dimethyl-5-pyrimidinol] here?
Its value is 82.5.

Which results are given for `Cc1nc(N(C)C)nc(C)c1O` [Example 5, 2-N,N-Dimethylamino-4,6-dimethyl-5-pyrimidinol]?
O—H BDE, absolute measured value (±2 SD) [1]: 78.16 ± 0.25 kcal/mol; O—H BDE: O—H bond dissociation enthalpy [1]: 78.2; O—H BDE difference versus a-TOH, experiment ([1]; relative to a-TOH): -0.1 kcal/mol; Experimental substituent effect on O—H BDE, 5-pyrimidinols (vi) [1]: -12.9 kcal/mol; Stability to air oxidation, in words [4]: without degradation by air oxidation; k/peroxyl: second order rate constant for reaction with peroxyl radicals [3]: 8.6 ± 0.5 × 10^6; Rate constant for reaction with peroxyl radicals [3]: 8.6 ± 0.5 × 10^6f M^−1 s^−1; Deuterium kinetic isotope effect (kH/kD), peroxyl radicals ([3]; dry solvents containing D2O): 3.1; k/alkyl: second order rate constant for reaction with alkyl radicals [2]: 2.9 ± 1.1 × 10^6; Rate constant for reaction with alkyl radicals ([2]; benzene, 298 K, 5-hexenyl radical clock (H)): 2.9 ± 1.1 × 10^6 (H) M^−1 s^−1; Rate of reaction with alkyl radicals relative to α-TOH ([2]; versus α-TOH): 5 times

With `CCN1CCCc2c(C)c(O)c(C)c(C)c21` [Formula 3b] as the molecule, how does the “Reactivity with peroxyl radicals compared to tocopherol, in words” value [5] read?
Its value is “react slowly with peroxyl radicals”.

Which “O—H BDE of unsubstituted phenol, absolute value” [6] does the source give for `Oc1ccccc1` [iv, phenol] here?
Its value is “(88.3) kcal/mol”.

For `Cc1cc(C)c(O)c(C)c1` [iv-b], which “Rate constant for reaction with peroxyl radicals” value [3] is on record?
The value was 1.1 ± 0.1 × 10^5 M^−1 s^−1.

What about the “Rate constant for reaction with alkyl radicals” value ([7]; neophyl clock (N)) of the same molecule?
Its value is 8.5 ± 0.2 × 10^4 (N)^e M^−1 s^−1.

And the “Experimental substituent effect on O—H BDE, phenols (iv)” value (from here on “Experimental substituent effect … (iv)”) [6]?
The value was -5.6 kcal/mol.

Which “Rate constant for reaction with peroxyl radicals” value [3] does the source give for `Cc1cc(C(C)(C)C)c(O)c(C(C)(C)C)c1` [iv-c] here?
Its value is 1.8 ± 0.3 × 10^4 M^−1 s^−1.

What about the “Rate constant for reaction with alkyl radicals” value ([7]; neophyl clock (N)) of the same molecule?
Its value is 4.8 ± 1.5 × 10^3 (N)^e M^−1 s^−1.

And the “Experimental substituent effect … (iv)” value [6]?
Its value is -7.3 kcal/mol.

Which “Air stability, footnote letter in place of O—H BDE” value [8] does the source give for `Cc1cc(N(C)C)cc(C)c1O` [iv-d] here?
Its value is “d”.

For α-tocopherol [a-TOH (1)], which “Rate constant for reaction with peroxyl radicals” value [3] is on record?
The value was 4.1 ± 0.4 × 10^6 M^−1 s^−1.

What about the “Rate constant for reaction with alkyl radicals” value ([7]; 5-hexenyl clock (H)) of the same molecule?
Its value is 6.0 ± 1.5 × 10^5 (H)^e M^−1 s^−1.

And the “Experimental substituent effect … (iv)” value [6]?
The value was −10.0^c kcal/mol.

From patent US7547709B2, “Chain-breaking antioxidants” (Vanderbilt University, priority 2004, dated 2009)
